Literature values, collected in article PMC11373361, “Expanding the inhibitor space of the WWP1 and WWP2 HECT E3 ligases” (Journal of Enzyme Inhibition and Medicinal Chemistry, 2024).

Experiments:
WWP2 = test system: WWP2; design: method as in PMID 30207403; details: cited from earlier work
WWP1 = test system: WWP1; design: method as in PMID 31097636; details: cited from earlier work

Structure (SMILES) | IC50 (WWP2) | IC50 (WWP1)
COCCn1c2nc(=O)n(-c3ccccc3)c(=O)c-2nc2ccccc21 [NSC-288387] | 2.3 µM | 
CCc1ccc(C=CC(=O)Nc2ccc(C(C)=O)cc2)o1 [Heclin] |  | 6.9 µM
